Experimental findings from patent publication US20100240040A1, “METHOD FOR SCREENING FOR SELECTIVE MODULATOR OF THE NF-KB PATHWAY ACTIVATION” (INSTITUT PASTEUR, priority 2007, published 2010) are described below.

The structures appear in SMILES notation. pKd: −log10 of the molar value. Where a SMILES comes first, the peptide text is derived from it.

Assay [1] has as its system ERK and p38 pathway. The assay can be described thus: SRE-luc reporter assay in Jurkat cells stimulated with PMA and ionomycin. Type of assay: cell-based, human. Conditions: 5 μM peptide, T-lymphocytes. The protocol:
Jurkat T cells (clone 20) were transiently transfected by a DEAE-dextran method with a reporter plasmid containing the luciferase under the control of a promoter inducible by the ERK and p38 pathway (SRE-luc; Courtois et al., 1997, Mol. Cell. Biol, 17:1441-1449), the NF-AT pathway or the API pathway (respectively NF-AT-luc and AP1-luc; Northrop et al., 1993, J. Biol. […]., 268:2917-2923). Briefly, cells were washed and resuspended at 10^7 cells/ml in TBS containing 0.5 mg/ml of DEAE-dextran (Pharmacia). 1 μg per 2·10^6 cells of reporter plasmid was added. After 45 min at room temperature, the cells were diluted with 10 volumes of TBS, centrifuged, and resuspended at 10^6 cells/ml in 10% FCS-RPMI. After 24 h, cells were incubated with or without 5 μM NEMO-derived peptides (BA-NLM or BA-DR NLM) for 2 h. They were stimulated or mock-stimulated with 100 ng/ml PMA and 1 μg/ml ionomycin for 5 h, and finally lysed in luciferase buffer (25 mM Tris-phosphate pH 7.8 containing 8 mM MgCl2, 1 mM DTE, 1% Triton X100, 15% glycerol). Luciferase measurement was carried out in a Berthold Luminometer.

Assay [2] deals with T1, Flag-NEMO (Mus musculus, UniProt O88522, A144V/E216G/P360T/S248N).
T1 construct: expressed in transfected cells
The assay can be described thus: Pull-down of Flag-NEMO from JM4.5.2/Flag-NEMO cells treated with Bodipy-conjugated peptides, bead fluorescence. Type of assay: cell-based, murine. The conditions noted are these: 20 μM peptide, 4 h. The protocol:
5·10^6 JM4.5.2/Flag-NEMO cells were seeded in 6-well plates (3 ml/well) and incubated with 20 μM of Bodipy-conjugated peptides (BA-NLM or BA-DR NLM) for 4 h at 37° C. Cells were centrifuged at 400×g for 5 min, resuspended in 200 μl of an hypotonic buffer (10 mM TrisHCl pH 7.9, 1.5 mM MgCl2, 10 mM KCl), left on ice for 20 min and lysed by several passage through a 26 G needle. Lysates were clarified at 15 000×g for 20 min and 80 μg of total proteins were incubated with 40 μl of agarose anti-Flag M2 beads for 1 h at 4° C. The Flag-NEMO protein were pulled down with the agarose anti-Flag M2 beads by centrifugation for 1 min. Beads were resuspended in 100 μl of hypotonic buffer and the fluorescence of NEMO linked peptide was read on microplate reader from SAFAS. NEMO coated beads were analyzed by Western blotting using anti-Flag M2 monoclonal antibodies to normalize the sample using the UN-SCAN-IT software. […]

The target of assay [3] is T2, spCC2-LZ (MOD of NEMO) (Mus musculus, UniProt O88522).
T2 construct: spCC2-LZ, synthetic polypeptide subdomain CC2-LZ; made in house; host or cells: chemical synthesis
In words: Fluorescence anisotropy binding of labelled peptide to spCC2-LZ. Conditions: labelled peptide 10 μM, increasing spCC2-LZ; read-out: dissociation constant for spCC2-LZ. The protocol: Anisotropy measurements were performed with a QuantaMaster® fluorometer (PTI), equipped with polarizing filters for excitation and emission, and using a photomultiplier tube in the L-configuration. All experiments were carried out in a microcuvette (60 μl) at 22° C., with excitation and emission wavelengths at 495 and 513 nm. The band pass of the excitation and emission wavelengths was 2 and 4 nm, respectively. Steady-state fluorescence anisotropy, expressed as millianisotropy units was measured as described Agou et al., 2004a. All measurements were carried out in a 20 mM isoionic buffer pH 8 (10 mM acetic acide, 10 mM MES, 20 mM Tris), containing 20 mM KCl. Each data point is the result of 20 recording taken over a 2-min period. To analyse whether DR NLM binds the MOD of NEMO, fluorescent labelled BA-DR NLM (10 μM) was incubated with an increasing concentrations of spCC2-LZ and the complex formation was monitored by fluorescence polarization (P) and results are expressed as anisotropy (A) according to the formula A=2P/(3-P). The concentration of spCC2-LZ was determining by amino acid analysis (Vinolo et al; 2006). Data points were fitted to the binding isotherm equation which gives a dissociation constant of 17 μM.
Background: Fluorescence polarisation rises when a labelled molecule tumbles more slowly, as on binding a larger partner.

T2 sequence (O88522 253-336): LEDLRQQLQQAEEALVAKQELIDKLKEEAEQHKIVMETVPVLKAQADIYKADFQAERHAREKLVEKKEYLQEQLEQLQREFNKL
T1 sequence (O88522 with tags, fused parts or gaps A144V/E216G/S248N/P360T): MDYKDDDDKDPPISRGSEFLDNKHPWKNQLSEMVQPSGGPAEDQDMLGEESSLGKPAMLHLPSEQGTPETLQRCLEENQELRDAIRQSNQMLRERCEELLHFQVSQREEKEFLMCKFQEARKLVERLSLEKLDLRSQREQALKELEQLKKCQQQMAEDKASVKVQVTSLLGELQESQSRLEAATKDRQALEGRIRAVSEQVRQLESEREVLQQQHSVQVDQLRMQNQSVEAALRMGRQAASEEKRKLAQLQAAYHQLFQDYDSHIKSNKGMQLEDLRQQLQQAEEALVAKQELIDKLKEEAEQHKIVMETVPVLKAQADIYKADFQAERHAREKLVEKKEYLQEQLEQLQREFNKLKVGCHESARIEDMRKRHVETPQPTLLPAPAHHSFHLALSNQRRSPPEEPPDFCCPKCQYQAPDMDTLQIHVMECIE

As for `CC[C@H](C)[C@H](NC(=O)[C@H](CC(=O)O)NC(=O)[C@H](C)NC(=O)[C@H](CCC(N)=O)NC(=O)[C@H](C)NC(=O)[C@H](CCCCN)NC(=O)[C@H](CC(C)C)NC(C)=O)C(=O)N[C@@H](Cc1ccc(O)cc1)C(=O)N[C@@H](CCCCN)C(=O)N[C@@H](C)C(=O)N[C@@H](CCCNC(=N)N)C(=O)N[C@@H](Cc1ccccc1)C(=O)N[C@@H](CCC(N)=O)C(=O)N[C@@H](C)C(=O)N[C@@H](CCC(=O)O)C(=O)N[C@@H](CCCNC(=N)N)C(=O)N[C@@H](Cc1c[nH]cn1)C(=O)N[C@@H](C)C(=O)N[C@@H](CCCNC(=N)N)C(=O)N[C@@H](CCC(=O)O)C(=O)N[C@@H](CCCCN)C(N)=O` [DR NLM] (Ac-LKAQADIYKARFQAERHAREK-NH2; N-terminus and C-terminus assumed), the “effect on ERK and p38 pathways” value in assay [1] is “does not abrogate”. The “peptide bound to NEMO in cells (bead fluorescence)” value in assay [2] is listed as “binds specifically to NEMO”. In addition, in assay [3], the pKd was 4.77.
